Measurements as given in ChEMBL document CHEMBL2401728, “An unexpected Dimroth rearrangement leading to annelated thieno[3,2-d][1,2,3]triazolo[1,5-a]pyrimidines with potent antitumor activity” (Eur J Med Chem, 2013).

Assays:
Format in all cases: functional
U-251 = experiment: Cytotoxicity against human U251 cells assessed as cellular growth at 10 uM after 48 hrs by SRB assay relative to control
ACHN = experiment: Cytotoxicity against human ACHN cells assessed as cellular growth at 10 uM after 48 hrs by SRB assay relative to control
SR = experiment: Cytotoxicity against human SR cells assessed as cellular growth at 10 uM after 48 hrs by SRB assay relative to control
MCF7 [1] = experiment: Cytotoxicity against human MCF7 cells assessed as cellular growth at 10 uM after 48 hrs by SRB assay relative to control
SF-295 [2] = experiment: Cytotoxicity against human SF295 cells assessed as cellular growth at 10 uM after 48 hrs by SRB assay relative to control
BT-549 [3] = experiment: Cytotoxicity against human BT549 cells assessed as cellular growth at 10 uM after 48 hrs by SRB assay relative to control
SNB-19 [4] = experiment: Cytotoxicity against human SNB19 cells assessed as cellular growth at 10 uM after 48 hrs by SRB assay relative to control
NCI-H460 = experiment: Cytotoxicity against human NCI-H460 cells assessed as cellular growth at 0.1 uM after 48 hrs by SRB assay relative to control
HCT-15 [5] = experiment: Cytotoxicity against human HCT15 cells assessed as cellular growth at 0.01 uM after 48 hrs by SRB assay relative to control
UACC-257 = experiment: Cytotoxicity against human UACC257 cells assessed as cellular growth at 0.1 uM after 48 hrs by SRB assay relative to control
HCT-116 = experiment: Cytotoxicity against human HCT116 cells after 48 hrs by SRB assay; details: HCT-116, 48 h
SNB-75 = experiment: Cytotoxicity against human SNB75 cells assessed as cellular growth at 0.1 uM after 48 hrs by SRB assay relative to control
HOP-62 = experiment: Cytotoxicity against human HOP62 cells assessed as cellular growth at 10 uM after 48 hrs by SRB assay relative to control
NCI-H522 = experiment: Cytotoxicity against human NCI-H522 cells assessed as cellular growth at 100 uM after 48 hrs by SRB assay relative to control
DU-145 = experiment: Cytotoxicity against human DU145 cells assessed as cellular growth at 100 uM after 48 hrs by SRB assay relative to control
MCF7 [6] = experiment: Cytotoxicity against human MCF7 cells after 48 hrs by SRB assay; details: MCF7, 48 h
A498 = experiment: Cytotoxicity against human A498 cells assessed as cellular growth at 1 uM after 48 hrs by SRB assay relative to control
Hs-578T = experiment: Cytotoxicity against human Hs578T cells assessed as cellular growth at 0.01 uM after 48 hrs by SRB assay relative to control
SK-OV-3 = experiment: Cytotoxicity against human SKOV3 cells assessed as cellular growth at 100 uM after 48 hrs by SRB assay relative to control
OVCAR-5 [7] = experiment: Cytotoxicity against human OVCAR5 cells assessed as cellular growth at 0.01 uM after 48 hrs by SRB assay relative to control
MCF7 [8] = experiment: Cytotoxicity against human MCF7 cells assessed as cellular growth at 100 uM after 48 hrs by SRB assay relative to control
OVCAR-5 [9] = experiment: Cytotoxicity against human OVCAR5 cells after 48 hrs by SRB assay; details: OVCAR-5, 48 h
T47D [10] = experiment: Cytotoxicity against human T47D cells assessed as cellular growth at 1 uM after 48 hrs by SRB assay relative to control
SF-539 = experiment: Cytotoxicity against human SF539 cells after 48 hrs by SRB assay; details: SF-539, 48 h
[11] = Cytotoxicity against human EKVX cells assessed as cellular growth at 10 uM after 48 hrs by SRB assay relative to control
NCI-H322M = experiment: Cytotoxicity against human NCI-H322M cells after 48 hrs by SRB assay
HCT-15 [12] = experiment: Cytotoxicity against human HCT15 cells assessed as cellular growth at 100 uM after 48 hrs by SRB assay relative to control
SW-620 = experiment: Cytotoxicity against human SW620 cells assessed as cellular growth at 0.1 uM after 48 hrs by SRB assay relative to control
BT-549 [13] = experiment: Cytotoxicity against human BT549 cells assessed as cellular growth at 100 uM after 48 hrs by SRB assay relative to control
SF-295 [14] = experiment: Cytotoxicity against human SF295 cells assessed as cellular growth at 0.01 uM after 48 hrs by SRB assay relative to control
OVCAR-4 = experiment: Cytotoxicity against human OVCAR4 cells assessed as cellular growth at 100 uM after 48 hrs by SRB assay relative to control
OVCAR-5 [15] = experiment: Cytotoxicity against human OVCAR5 cells assessed as cellular growth at 1 uM after 48 hrs by SRB assay relative to control
SNB-19 [16] = experiment: Cytotoxicity against human SNB19 cells assessed as cellular growth at 1 uM after 48 hrs by SRB assay relative to control
T47D [17] = experiment: Cytotoxicity against human T47D cells assessed as cellular growth at 0.01 uM after 48 hrs by SRB assay relative to control
MDA-MB-468 = experiment: Cytotoxicity against human MDA-MB-468 cells assessed as cellular growth at 1 uM after 48 hrs by SRB assay relative to control
M14 = experiment: Cytotoxicity against human M14 cells assessed as cellular growth at 0.1 uM after 48 hrs by SRB assay relative to control
SF-268 = experiment: Cytotoxicity against human SF268 cells assessed as cellular growth at 0.01 uM after 48 hrs by SRB assay relative to control
SN12C = experiment: Cytotoxicity against human SN12C cells assessed as cellular growth at 0.01 uM after 48 hrs by SRB assay relative to control
[18] = read-out: LC50 (the source's name)
[19] = read-out: pLC50 (the source's name) (converted)

O=C(O)CCCn1c2c(sc3ccccc32)c(=O)n2nnc(-c3ccccc3)c12
Activity (U-251): 94.66% | Activity (ACHN): 79.06% | Activity (SR): 117.58% | Activity (MCF7 [1]): 84.04% | Activity (SF-295 [2]): 92.89% | Activity (BT-549 [3]): 54.36% | Activity (SNB-19 [4]): 76.27%

O=C(CCCn1c2c(sc3ccccc32)c(=O)n2nnc(-c3ccccc3)c12)NCCc1c[nH]cn1
Activity (U-251): -100% | Activity (NCI-H460): 114% | Activity (HCT-15 [5]): 96% | Activity (UACC-257): 108% | Activity (ACHN): -84% | GI50 (HCT-116; read-out: GI50): < 0.01 µM | GI50 (HCT-116; read-out: pGI50 (converted)): 0.01 µM | Activity (SNB-75): 115% | Activity (HOP-62): -79% | Activity (NCI-H522): -25% | Activity (DU-145): -100% | GI50 (MCF7 [6]; read-out: GI50): 1.15 µM | LC50 (MCF7 [6]; read-out: LC50): 6.11 µM | TGI (MCF7 [6]; read-out: TGI): 2.65 µM | GI50 (MCF7 [6]; read-out: pGI50 (converted)): 1.15 µM | LC50 (MCF7 [6]; read-out: pLC50 (converted)): 6.17 µM | TGI (MCF7 [6]; read-out: pTGI (converted)): 2.63 µM | Activity (A498): 55% | Activity (Hs-578T): 109% | Activity (SK-OV-3): -100% | Activity (OVCAR-5 [7]): 94% | Activity (MCF7 [8]): -73% | GI50 (OVCAR-5 [9]; read-out: GI50): 0.0565 µM | CC50 (OVCAR-5 [9]; [18]): 4.06 µM | TGI (OVCAR-5 [9]; read-out: TGI): 1.36 µM | GI50 (OVCAR-5 [9]; read-out: pGI50 (converted)): 0.0562 µM | CC50 (OVCAR-5 [9]; [19]): 4.07 µM | TGI (OVCAR-5 [9]; read-out: pTGI (converted)): 1.35 µM | Activity (SR): -64% | Activity (T47D [10]): 57% | Activity (MCF7 [1]): -100% | GI50 (SF-539; read-out: GI50): 0.0206 µM | CC50 (SF-539; [18]): 3.14 µM | TGI (SF-539; read-out: TGI): 0.122 µM | GI50 (SF-539; read-out: pGI50 (converted)): 0.0204 µM | CC50 (SF-539; [19]): 3.16 µM | TGI (SF-539; read-out: pTGI (converted)): 0.123 µM | Activity [11]: 6% | GI50 (NCI-H322M; read-out: GI50): 2.75 µM | CC50 (NCI-H322M; [18]): 39.2 µM | TGI (NCI-H322M; read-out: TGI): 9.8 µM | GI50 (NCI-H322M; read-out: pGI50 (converted)): 2.75 µM | CC50 (NCI-H322M; [19]): 38.9 µM | TGI (NCI-H322M; read-out: pTGI (converted)): 9.77 µM | Activity (HCT-15 [12]): -100% | Activity (SW-620): 29% | Activity (BT-549 [13]): -72% | Activity (SF-295 [14]): 101% | Activity (OVCAR-4): -87% | Activity (SF-295 [2]): -83% | Activity (OVCAR-5 [15]): 14% | Activity (SNB-19 [16]): 65% | Activity (T47D [17]): 85% | Activity (BT-549 [3]): 4% | Activity (MDA-MB-468): 8% | Activity (SNB-19 [4]): 27.29% | Activity (M14): 68% | Activity (SF-268): 105% | Activity (SN12C): 50%

CN1CCN(CCCn2c3c(sc4ncccc43)c(=O)n3nnc(-c4ccccc4)c23)CC1
Activity (U-251): -84% | Activity (NCI-H460): 100% | Activity (HCT-15 [5]): 94% | Activity (UACC-257): 99% | Activity (ACHN): -77% | GI50 (HCT-116; read-out: GI50): 1.71 µM | CC50 (HCT-116; [18]): 6.96 µM | TGI (HCT-116; read-out: TGI): 3.45 µM | GI50 (HCT-116; read-out: pGI50 (converted)): 1.7 µM | CC50 (HCT-116; [19]): 6.92 µM | TGI (HCT-116; read-out: pTGI (converted)): 3.47 µM | Activity (SNB-75): 71% | Activity (HOP-62): -90% | Activity (NCI-H522): -35% | Activity (DU-145): -88% | GI50 (MCF7 [6]; read-out: GI50): 1.53 µM | LC50 (MCF7 [6]; read-out: LC50): 5.82 µM | TGI (MCF7 [6]; read-out: TGI): 2.99 µM | GI50 (MCF7 [6]; read-out: pGI50 (converted)): 1.55 µM | LC50 (MCF7 [6]; read-out: pLC50 (converted)): 5.75 µM | TGI (MCF7 [6]; read-out: pTGI (converted)): 3.02 µM | Activity (A498): 76% | Activity (Hs-578T): 95% | Activity (SK-OV-3): -95% | Activity (OVCAR-5 [7]): 105% | Activity (MCF7 [8]): -79% | GI50 (OVCAR-5 [9]; read-out: GI50): 2.69 µM | CC50 (OVCAR-5 [9]; [18]): > 100 µM | TGI (OVCAR-5 [9]; read-out: TGI): 7.35 µM | GI50 (OVCAR-5 [9]; read-out: pGI50 (converted)): 2.69 µM | CC50 (OVCAR-5 [9]; [19]): > 100 µM | TGI (OVCAR-5 [9]; read-out: pTGI (converted)): 7.41 µM | Activity (SR): -50% | Activity (T47D [10]): 103% | Activity (MCF7 [1]): -91% | GI50 (SF-539; read-out: GI50): 1.71 µM | CC50 (SF-539; [18]): 6.54 µM | TGI (SF-539; read-out: TGI): 3.34 µM | GI50 (SF-539; read-out: pGI50 (converted)): 1.7 µM | CC50 (SF-539; [19]): 6.61 µM | TGI (SF-539; read-out: pTGI (converted)): 3.31 µM | Activity [11]: -43% | GI50 (NCI-H322M; read-out: GI50): 1.74 µM | CC50 (NCI-H322M; [18]): 6.96 µM | TGI (NCI-H322M; read-out: TGI): 3.48 µM | GI50 (NCI-H322M; read-out: pGI50 (converted)): 1.74 µM | CC50 (NCI-H322M; [19]): 6.92 µM | TGI (NCI-H322M; read-out: pTGI (converted)): 3.47 µM | Activity (HCT-15 [12]): -69% | Activity (SW-620): 89% | Activity (BT-549 [13]): -81% | Activity (SF-295 [14]): 106% | Activity (OVCAR-4): -70% | Activity (SF-295 [2]): -79% | Activity (OVCAR-5 [15]): 99% | Activity (SNB-19 [16]): 107% | Activity (T47D [17]): 89% | Activity (BT-549 [3]): 76% | Activity (MDA-MB-468): 101% | Activity (SNB-19 [4]): -63% | Activity (M14): 94% | Activity (SF-268): 96% | Activity (SN12C): 97%
